{"source": "patent US11685741B2", "about": "“Fluorescent probes” (University of Massachusetts, priority 2017, dated 2023)", "key": {"[1]": {"test": "Binding studies of sensor with Fe3+ (Job's plot, titration, EDTA reversibility)", "settings": "1:1 sensor-Fe^3+ complex; ACN/Tris-HCl buffer pH 7.3", "experimental": "Job's method and UV-vis spectra were applied to study the binding stoichiometry between Rh-PK and Fe^3+ and monitored by the absorbance at 555 nm. […] The binding constant of this complex was calculated following a method reported previously (G. E. Tumambac, et al., Tetrahedron 2004, 60, 11293-11297), using absorption values at […] by the equations described below, and was determined to be 1.54×10^7 […].\nThe equations below was used to calculate the binding constants with stoichiometry of 1:1. L+S↔LS where L=sensor, S=Fe3+ and LS=sensor-Fe^3+ complex. The apparent binding constant is given by\n[formula] Fe is the fraction of L that formed a complex, [LS]e is concentration at equilibrium, [L]0 is the initial concentration. Au, Am, and Ac are the absorbances of solutions of L (before any Fe^3+ was added), during the titration and at saturation, respectively. The concentration of free Fe^3+ at equilibrium, [S]e, is found with the following identity. [S]e=[S]o−[LS]e=[S]o−Fc[L]o The apparent binding constant K can then be calculated from\nReversibility experiments were carried out by adding EDTA to the complex in ACN/Tris-HCl buffer (10 mM, pH 7.3, v/v 3:1). […]\nThe stoichiometry of RhHPA-Fe^3+ was measured using Job's plot and mole ratio plots methods. B. Valeur, Molecular Fluorescence: Principles and Applications, Wiley-VCH. […] To determine the binding constant of chemosensor, a fluorescence titration of different amounts of Fe^3+ into the acetonitrile solution of sensor was carried out. […] The determination of the binding constant of RhHPA was calculated using the following equation: F−Fmin=[…](Fmax−Fmin)/Kd where F is the observed fluorescence, Fmax is the maximum fluorescence for the RhHPA-Fe^3+ complex at concentration of the equal reacted between sensor and metal cation, Fmin is the fluorescence intensity for occurring RhHPA-Fe^3+.\nAbsorption enhancement observation at 558 nm was plotted against the molar value of the [Fe^3+]/[Fe^3+]+RhHPA and [Fe^3+]/RhHPA. […] Binding constant of fluorescent sensor “RhHPA” was calculated and it was found as K=1.27×10^7 M^−1. […]"}, "[2]": {"test": "Metal ion sensing: UV-vis and fluorescence response to Fe3+ and other metal ions", "settings": "one equivalent Fe^3+, ACN/Tris-HCl buffer pH 7.3", "experimental": "The spectroscopic properties of Rh-PK and its interactions with various metal ions were evaluated in acetonitrile (ACN)/Tris-HCl buffer (10 mM, pH 7.3, v/v, 3:1). […] The changes in UV-Vis spectra after the addition of various ions are shown in FIG. 2, which is an absorbance spectrum of 100 μM sensor with various metal ions (100 μM for Ni^+2, Cu^+, Cu^+2, Zn^+2, Pb, Fe^+2, Fe^+3, Cr^+3, Hg^+2, Mn^+2, Ag^+, and Co^+2; 200 μM for K^+, Na^+, Ca^2+ and Mg^2+) in the ACN/Tris buffer (10 mM, pH 7.3, v/v 3:1).\nWhen Fe^3+ was added into the solution of Rh-PK, a significant enhancement of fluorescence (>12-fold with 1.0 equiv of Fe^3+) was observed.\nThe interferences from the other metal ions with Rh-PK in its response to Fe^3+ was examined. […] Each of the 12 metal ions was pre-incubated with Rh-PK before 1 equiv. of Fe^3+ was added, the fluorescence response was then measured.\nThe stock solution of sensor and metal ions were prepared at the concentration of 1 mM. M. P. Walkees, Mutat. Res., 2003, 533, 107; M. Waisberg, et al., Toxicology, 2003, 192, 95.\nThe UV-vis. and fluorescence spectra of RhHPA to various possible interfering metal ions and its selectivity for Fe^3+ were examined. See FIG. 6, which is a plot of absorbance dependent on the concentration of Fe^3+ in the range from 0 to 2 equivalents in ACN/Tris-HCl buffer (10 mM, pH 7.3, v/v 2:1); FIG. 7, which is a Job's plot between Fe^3+ and RhHPA, indicating the 1:1 binding mode for sensor and iron(III). […] Addition of Na^+, K^+, Ca^2+, Mg^2+, Cr^3+, […], Hg^2+, Cu^2+, Pb^2+, Zn^2+, Fe^2+, Co^2+, Ni^2+, and Ag^+ exerted little or no effect on the emission of RhHPA, while remarkable fluorescence enhancement was detected upon the addition of Fe^3+ by excitation of the rhodamine fluorophore at 535 nm.\nExperiments of iron(III) with other metal ions were investigated by means of the fluorescence response of RhHPA toward Fe^3+ in the presence of various other metal ions such as Na^+, K^+, Ca^2+, Mg^2+, Cr^3+, Hg^2+, Cu^2+, Pb^2+, Zn^2+, Fe^2+, Co^2+, Ni^2+, Cd^2+, and Ag^+. […] for Fe^3+ had no changes with addition of other metal ions. Cu(II) and Zn(II) increased the fluorescence intensity slightly."}, "[3]": {"test": "Effect of pH on fluorescence of sensor and its Fe complex", "format": "physicochemical", "settings": "pH adjusted with HCl/NaOH"}, "[4]": {"tested_on": "Bovine aortic endothelial cells (BAEC)", "test": "Confocal imaging of Fe3+ with RhHPA in BAEC cells", "format": "cell-based", "experimental": "Primary cultured Bovine aortic endothelial cells (BAEC) were passaged in Endothelial Basal Medium (Lonza) containing 5% fetal bovine serum. Before the experiment, the cells were cultured to about 8th generation. For experiment preparation, the cells were routinely subcultured using 0.05% trypsin-EDTA solution. The cells were seeded on the 25 cm^2 flask and medium change every two days until a 70% confluency before transferring into disks. The cells were seeded on the 1 cm^2 disk and a medium change the next day.\nTo evaluate the ability of RhHPA to capture Fe^3+ ions in cells, BAEC cells were incubated with the sensor (10 μM) for 30 min.\nBAEC cells were incubated with 10 μM of ferric chloride (FeCl3) at 37° C. for overnight, then 10 μM of RhHPA was added to BAEC cells and was incubated at 37° C. for 30 min.\nFor the second control experiment, an Fe^3+-chelator SIH was added to iron-loaded and non-iron-loaded cells with RhHPA.\nBAEC cells (without Fe^3+ treatment) were treated with RhHPA, MitoTracker Green FM and LysoTracker blue DND-22. As shown in FIG. 20A to FIG. 20H, there are partial colocalization between RhHPA-Fe^3+ and the MitoTracker (FIG. 20E) as well as that between RhHPA-Fe^3+ and the LysoTracker (FIG. 20F); however, a […] colocalization was observed among RhHPA-Fe^3+, MitoTracker and LysoTracker (FIG. 20G)."}, "[5]": {"tested_on": "cells in the culture experiments", "test": "Cell permeability and toxicity in the culture experiments", "format": "cell-based"}}, "note": "Where “and” joins values, the source holds several entries; their conditions need not be identical. Identical values can stand only once. Entries after “also recorded” stand apart in the source; their conditions may differ."}
{"smiles": "CCN(CC)c1ccc2c(c1)Oc1cc(N(CC)CC)ccc1C21c2ccccc2C(=O)N1/N=C/c1cccc(CO)n1", "note": "[RhHPA, (E)-3′,6′-bis(diethylamino)-2-(((6-(hydroxymethyl)pyridin-2-yl)methylene)amino)spiro[isoindoline-1,9′-xanthen]-3-one]", "values": [{"measurement": "apparent binding constant", "setting": "[1]", "result": "1.27e+07", "unit": "M⁻¹"}, {"measurement": "increase in fluorescence emission intensity", "setting": "[2]", "result": "~20", "unit": "fold"}, {"measurement": "pH range over which sensor (and Fe complex) fluorescence is stable / working pH range", "setting": "[3]", "result": "5-9 and 5 to 9"}, {"measurement": "increase in fluorescent intensity in Fe^3+-treated cells", "setting": "[4]; 10 μM FeCl3 overnight, then 10 μM RhHPA 30 min", "result": "~8", "unit": "fold"}, {"measurement": "fluorescence enhancement in cells", "setting": "[4]; 10 μM sensor, 30 min, no Fe^3+ supplementation", "result": 4, "unit": "fold"}, {"measurement": "change in fluorescence signal, Fe^3+ then chelator", "setting": "[4]; 20 μM Fe^3+ overnight, then 100 μM SIH, then 10 μM RhHPA, versus Fe(III) supplement", "result": "large decrease in fluorescence signal"}, {"measurement": "change in fluorescence signal with chelator", "setting": "[4]; 100 μM SIH, non-iron-loaded cells", "result": "small decrease in fluorescence signal"}, {"measurement": "toxicity for cells", "setting": "[5]; culture experiments", "result": "non-toxic"}, {"measurement": "cell permeability", "setting": "[5]; live cells in culture", "result": "excellent cell permeability; also recorded: cell permeable"}]}
